Measurements: US20120101147A1, “INHIBITION OF HDAC2 TO PROMOTE MEMORY” (The General Hospital Corporation d/b/a Massachusetts …, priority 2008, published 2012)
“Also recorded” adds a separate entry of the source.

Experiments:
[1] = tested on: tetra-acetylated H2B; test: Western blot of tetra-acetylated H2B in primary striatal cells; assay type: cell-based, mouse; settings: relative to DMSO controls
Description: (§1) Four compounds were tested including CI-994 (BRD-3696) and SAHA. […] BRD-6929 and BRD-5298 treatment results in a 2-5 fold increase in both marks at 1 and 10 uM.

[2] = tested on: H2B acetylation; test: Immunofluorescence: H2B acetylation in primary neuronal cell cultures; assay type: cell-based, mouse; settings: 1 and 10 uM; 6 h; primary neuronal cell cultures
Description: (§2) 1) Compounds were pin transferred from 384-well plates (Abgene) using a 185 nl pin tool using a no touch bottom protocol.
(§3) 1) Media was aspirated using a plate washer (Tecan) protocol that leaves ˜5 ul residual volume and without touching the bottom of plates); or alternatively, wells were gently aspirated to remove media with 12-channel aspirator wand.
(§4) 2) A multichannel pipet or use liquid handling system (e.g. Combi, standard tubing; slow speed) was used to add 75 ul formaldehyde (4% in PBS) and wells incubated 10 min at room temperature.
(§5) 3) Formaldehyde was aspirated and cells rinsed 3 times with 100 ul PBS;
(§6) 4) PBS was aspirated and 100 ul blocking/permeablization buffer (0.1% Triton-X100, 2% BSA, in PBS) added and wells incubate 1 hour at room temperature.
(§7) 5) Blocking buffer was aspirated and 50 ul primary antibody diluted 1:500 in blocking buffer was added and wells incubated overnight at 4 degrees.
(§8) 1) Primary antibody was aspirated and wells rinsed 3 times with 100 ul blocking buffer
(§9) 2) 50 ul of secondary antibody diluted 1:500 and with Hoeschst (1:1000 from 10 mg/mL (16 mM) stock) added and wells incubated 1.5 hours at room temperature covered in foil to prevent photobleaching.
(§10) 3) Wells were rinsed 3 times with 100 ul PBS, and a 100 uls of PBS added and the plates, sealed
(§11) 4) Plates were then read on Acumen/IX Micro

[3] = tested on: tetra-acetylated H4; test: Western blot of tetra-acetylated H4 in primary striatal cells; assay type: cell-based, mouse; settings: relative to DMSO controls
Description: as §1

[4] = tested on: primary neuronal cultures; test: Immunofluorescence: overall cell number in primary neuronal cultures; assay type: cell-based, mouse; settings: 1 and 10 uM; 6 h; primary neuronal cell cultures
Description: as §2, §3, §4, §5, §6, §7, §8, §9, §10, §11

[5] = tested on: mice; test: Context-dependent fear conditioning memory test; assay type: in vivo, mouse
Description: Fear conditioning tests Context-dependent fear conditioning. Training consists of a 3 min exposure of mice to the conditioning box (context) followed by a foot shock (2 sec, 0.5/0.8/1.0 mA, constant current). The memory test was performed 24 hr later by re-exposing the mice for 3 min into the conditioning context. Freezing, defined as a lack of movement except for heart beat and respiration associated with a crouching posture, was recorded every 10 sec by two trained observers (one was unaware of the experimental conditions) during 3 min (a total of 18 sampling intervals). The number of observations indicating freezing obtained as a mean from both observers was expressed as a percentage of the total number of observations.
Chemical administration Suberoylanilide hydroxamic acid (SAHA) was synthesized as described previously in WO 93/07148 PTC/US92/08454. Sodium butyrate was purchased from Sigma (cat.B5887). SAHA and WT-161 were dissolved in DMSO as stock solutions and diluted in saline just before injection. Sodium butyrate was prepared in saline. Mice received intraperitoneal injection daily with either SAHA or saline for 10 days or 21 days.
C57/BL6 WT mice were injected with vehicle or BRD-6929 for 10 days. On day 11, mice were trained in contextual fear conditioning paradigm (Training consisted of a 3 min exposure of mice to the conditioning box (context, TSE) followed by a foot shock (2 sec, 0.8 mA, constant current). One hour after training, mice were injected with BRD-6929 or vehicle. On day 12, mice were returned to the training box and the freezing behavior were monitored and recorded.

[6] = tested on: c-fos; test: c-fos positive cells after fear conditioning training; assay type: in vivo, mouse; settings: compared to saline treated group
Text: Studies described in the Examples below were also undertaken to determine which of the 11 histone deacetylases is responsible for the observed function and to identify selective HDAC inhibitors for enhancing memory. […] Remarkably, HDAC2 neuron specific knockout mice (loss of function) display enhanced learning. […] Thus it was unexpected that HDAC1/HDAC2 inhibitors would be useful for enhancing memory.

[7] = tested on: hippocampus; test: Long-term potentiation (LTP) in hippocampal slices of treated mice; assay type: in vivo, mouse; settings: 25 mg/kg i.p. 10 days, one HFS 1×100 Hz
Description: FIG. 6 SAHA treatment facilitates LTP in WT but not HDAC2KO hippocampus. a-b. One-month-old HDAC2KO mice and their WT littermates were injected with SAHA (25 mg/kg, i.p.) or saline for 10 days. An additional injection was introduced 30 minutes before sacrifice. Long-term potentiation (LTP) was induced by one HFS stimulation (1×100 Hz, 1 s) of Schaffer collaterals. a. […] (**, p<0.005, two-way ANOVA).
Electrophysiological analysis. 3-6 months old HDAC2OE, HDAC2KO or their littermates were killed by cervical dislocation, and hippocampi were rapidly dissected in iced oxygenated artificial CSF (ACSF). Transverse hippocampal slices, 400 μm thick were placed in a chamber and continuously perfused with oxygenated ACSF. A bipolar stimulating electrodes (0.002-inch-diameter nichrome wire; A-M Systems) placed in the stratum radiatum was used to elicit action potentials in CA3 axons. An ACSF-filled glass microelectrode with a resistance between 0.5 and 3 MΩ was placed in the stratum radiatum region of CA1 and was used to record the field excitatory post-synaptic potentials (fEPSP). Data were acquired using HEKA EPC10 and analyzed by patchmaster (HEKA). […] Baseline responses were recorded for 20 min. fEPSP were evoked at the CA1 synapses by stimulating Schaffer collaterals at a low frequency (2 per min) to establish a stable baseline. […]

[8] = tested on: CA1 region of hippocampus; test: Golgi staining and synaptophysin immunostaining of hippocampal CA1; assay type: in vivo, mouse
Description: Memory test for mice with contextual fear conditioning training (foot shock 1.0 mA). HDAC2OE mice (SAHA group, n=12; saline group, n=12) and WT littermates (SAHA group, n=12; saline group, n=15) were treated with saline or SAHA (25 mg/kg, i.p.) for 10 days before memory test. b. CA1 region (pyramidal neuron layer; stratum radiatum (s.r.)) from WT and HDAC2OE mice received chronic SAHA treatment or saline treatment and were observed through immunostaining. Average optical signals for Ac-lysine were measured on pyramidal neuron layer; SVP signals were measured from s.r. c. Images of Golgi staining from CA1 region of hippocampus. For WT, naive, n=23; WT, SAHA, n=41; HDAC2OE, naïve, n=21; HDAC2OE, SAHA, n=32. Scale bar 10 μm. d. Memory test for mice with contextual fear conditioning training (foot shock 0.5 mA) after 10 day SAHA injection (25 mg/kg, i.p.). WT mice (SAHA, n=10; saline, n=10) and HDAC2 KO mice (SAHA, n=8; saline, n=8). e. CA1 region from HDAC2KO mice received chronic SAHA treatment or saline treatment and were observed through immunostaining. SVP-singles were quantified in the s.r. Saline, n=15; SAHA, n=22. Scale bar=50 μm. f. Images of Golgi staining of CA1 region of hippocampus from HDAC2KO mice. HDAC2KO, SAHA, n=24; HDAC2KO, naïve, n=27. *, p<0.05; **, p<0.005; ***,p<0.001, unpaired student t-test error bars indicate s.e.m.
Golgi impregnation Golgi-Cox-stained brains were cut to 200 μm thick cross-sections with vibratome and analyzed using a Zeiss 200 Axiovert microscope and Openlab software. The number of apical and basal spines on hippocampal CA1 pyramidal neurons was counted blind to the genotype. For each experimental group, a minimum of 10 cells per slice (animal number n=3) were analyzed. CA1 hippocampal neurons within the region −1.4 mm to −1.6 mm (relative to the bregma position) were included for the analysis.
Immunohistochemistry Immunohistochemical analysis was performed as described before (Guan, J. S., et al., Cell, 2005. 122(4): p. 619-31.). Antibodies were used in a 1:1000 concentration. […] Staining was quantified using LSMetal0 software (Zeiss).

[9] = target: T1, HDAC6 (Homo sapiens, UniProt Q9UBN7); settings: cited from earlier work
T1 sequence (Q9UBN7 1-1215): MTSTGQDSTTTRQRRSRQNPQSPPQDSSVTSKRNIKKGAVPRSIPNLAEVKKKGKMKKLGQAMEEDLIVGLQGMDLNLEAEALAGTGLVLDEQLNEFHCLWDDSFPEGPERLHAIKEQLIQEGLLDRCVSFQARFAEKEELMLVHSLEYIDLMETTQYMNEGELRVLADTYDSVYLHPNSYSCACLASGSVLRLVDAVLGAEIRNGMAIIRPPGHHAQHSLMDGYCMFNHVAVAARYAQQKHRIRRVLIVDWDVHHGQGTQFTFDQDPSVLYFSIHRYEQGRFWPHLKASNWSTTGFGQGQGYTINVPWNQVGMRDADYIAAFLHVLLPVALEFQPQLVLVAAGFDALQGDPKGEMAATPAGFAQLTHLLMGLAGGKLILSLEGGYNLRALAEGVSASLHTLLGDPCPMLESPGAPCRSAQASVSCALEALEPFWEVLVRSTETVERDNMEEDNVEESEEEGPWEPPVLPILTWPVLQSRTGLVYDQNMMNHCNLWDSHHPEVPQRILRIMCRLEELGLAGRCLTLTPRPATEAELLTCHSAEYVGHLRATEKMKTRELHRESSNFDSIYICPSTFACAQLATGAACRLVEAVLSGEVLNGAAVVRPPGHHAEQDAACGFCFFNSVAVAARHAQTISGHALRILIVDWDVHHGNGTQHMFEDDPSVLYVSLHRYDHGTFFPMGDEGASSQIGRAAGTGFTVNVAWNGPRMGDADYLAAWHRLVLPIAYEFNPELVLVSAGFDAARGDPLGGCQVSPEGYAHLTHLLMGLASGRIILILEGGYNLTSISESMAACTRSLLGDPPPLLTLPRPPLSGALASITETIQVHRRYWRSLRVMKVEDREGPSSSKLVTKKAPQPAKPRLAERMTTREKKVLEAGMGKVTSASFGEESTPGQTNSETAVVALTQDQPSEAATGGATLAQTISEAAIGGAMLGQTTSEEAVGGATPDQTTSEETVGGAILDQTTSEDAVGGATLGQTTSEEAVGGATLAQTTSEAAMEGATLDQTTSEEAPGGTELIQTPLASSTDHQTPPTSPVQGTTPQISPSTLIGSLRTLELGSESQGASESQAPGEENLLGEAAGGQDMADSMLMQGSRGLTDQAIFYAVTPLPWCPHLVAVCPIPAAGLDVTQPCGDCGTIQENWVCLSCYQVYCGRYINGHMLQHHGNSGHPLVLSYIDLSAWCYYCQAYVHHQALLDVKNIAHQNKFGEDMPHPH

[10] = HDAC2KO mice, chronic treatment

**Q.** What does the source list for `CN1CCN(CCNC(=O)c2ccc(C(=O)Nc3cc(-c4cccs4)ccc3N)cc2)CC1` [BRD-5298, N1-(2-amino-5-(thiophen-2-yl)phenyl)-N4-(2-(4-methylpiperazin-1-yl)ethyl)terephthalamide]?
**A.** tetra-acetylated H2B [1]: trend toward increasing; H2B acetylation [2]: significant increase; tetra-acetylated H4 [3]: significantly increased; overall cell number [4]: do not cause an increase or decrease

**Q.** With `Nc1ccccc1NC(=O)c1ccc(CNC(=O)OCc2cccnc2)cc1` [MS-275] as the molecule, how does the “associative learning in mice” value ([5]; mouse, in vivo) read?
**A.** did not facilitate

**Q.** What about the “number of c-fos positive cells after fear conditioning training” value [6] of the same molecule?
**A.** lower number

**Q.** Which freezing behavior ([5]; HDAC2KO mice, 25 mg/kg i.p. 10 days, foot shock 0.5 mA, n=8) does the source give for `O=C(CCCCCCC(=O)Nc1ccccc1)NO` [SAHA, suberoylanilide hydroxamic acid] here?
**A.** 52.1±9.8%

**Q.** And the freezing behavior ([5]; HDAC2OE mice, 25 mg/kg i.p. daily 10 days, foot shock 1.0 mA, n=12)?
**A.** 66.7±5.1%

**Q.** And the freezing behavior ([5]; WT control mice, 25 mg/kg i.p. 10 days, foot shock 0.5 mA, n=10)?
**A.** 45.0±6.9%

**Q.** What about the freezing behavior ([5]; WT control mice, 25 mg/kg i.p. daily 10 days, foot shock 1.0 mA, n=12) of the same molecule?
**A.** 63.9±4.2%

**Q.** And the LTP ([7]; HDAC2 KO hippocampus)?
**A.** did not have a detectable effect; also recorded: No significant difference

**Q.** What about the LTP ([7]; WT hippocampus) of the same molecule?
**A.** modestly increased; also recorded: significant increase

**Q.** What about the “dendritic spine density of CA1 neurons” value [8, 10] of the same molecule?
**A.** not significantly affected

**Q.** And the “synaptophysin staining in the stratum radiatum” value [8, 10]?
**A.** not significantly affected

**Q.** And the “decreased dendritic spine and synapses phenotype” value ([8]; HDAC2OE mice, chronic treatment 25 mg/kg i.p.)?
**A.** completely abrogated

**Q.** For `CCCC(=O)[O-].[Na+]` [SB, sodium butyrate], which “inhibition of HDAC6 activity in vitro” value [9] is on record?
**A.** does not inhibit
